{
  "source": "patent US9034624B2",
  "about": "“Process for the synthesis of conjugates of glycosaminoglycanes (GAG) with biologically active molecules, polymeric conjugates and relative uses thereof” (FIDIA FARMACEUTICI S.P.A., priority 2009, dated 2015)",
  "key": {"[1]": {"experiment": "glucose levels in blood, streptozocin-induced diabetes type I model", "assay_type": "in vivo, rat", "settings": "for effect on glucose level in the blood: diabetic rats (streptozocin 70 mg/Kg), conjugate subcutaneous", "description": "3.00 g of the aldehyde derivative of HA (activated intermediate) according to Example 1 are dissolved at a concentration of 10 mg/ml in an acid environment by the presence of phosphoric acid at a temperature of 60° C. for 2 hours. 4×10^−5 moles of insulin, 4×10^−1 moles of cyanoborohydride are added to the hydrolyzed product previously cooled and the pH is regulated to 6.0. After 24 h of reaction, the adduct is purified and analyzed via dimensional exclusion chromatography; the relative chromatogram is visible in FIG. 8. The activity in vivo of the conjugate is evaluated on a model of induced diabetes type I in a rat after administration of streptozocin at a dose of 70 mg/Kg.\nThe HA-Insulin conjugate is administered subcutaneously at a dose of 5 or 20 μg of equivalent insulin. The biological activity of the conjugate is tested through the determination of the glucose levels in the blood of animals, measured by means of commercial kits (OneTouch® II, LifeScan, Johnson & Johnson), The control consists of healthy rats (group 1) and rats with induced diabetes treated with insulin (group 2). The results are illustrated in FIG. 9."}, "[2]": {"settings": "cited from earlier work"}, "[3]": {"system": "cyclic 2′,3′-cytidine monophosphate (2′,3′-CMC)", "experiment": "residual enzymatic activity of RNAse A, free or bound to HA (absorption increase at 287 nm)", "assay_type": "biochemical", "settings": "hydrolysis of 2′,3′-CMC, absorption at 287 nm", "description": "1.00 g of the aldehyde derivative of HA according to Example 1 are dissolved at a concentration of 8 mg/ml in an acid environment by the presence of phosphoric acid at a temperature of 50° C. for 2 hours. The pH is regulated to 6.0 and 2×10^−5 moles of RNAse A and 2×10^−1 moles of cyanoborohydride are added to the hydrolyzed product previously cooled. At this pH the reaction takes place specifically at the N-terminal end of the protein. After 24 h of reaction, the adduct is purified by dialysis against water and then freeze-dried. The corresponding GPC chromatogram registered under the conditions described in Example 14 can be found in FIG. 7. This type of conjugate is optimally suitable for measuring in vitro the residual activity of the enzyme, using a specific kit based on the evaluation of the absorption increase at 287 nm with time, determined by hydrolysis of the specific synthetic substrate cyclic 2′,3′-cytidine monophosphate (2′,3′-CMC).\nA comparison of the residual activity of the enzyme, free or bound to HA, produces the following results: […]"}},
  "data": [
    {"molecule": "insulin: free insulin, control treatment of diabetic rats [reference compound]", "values": [
      {"measurement": "effect on glucose level in the blood", "setting": "[1]; 5 or 20 μg equivalent insulin", "value": "sudden decrease in the glucose level in the blood, which however returns to high values in a relatively rapid time scale"}
    ]},
    {"molecule": "HA-Insulin: hyaluronic acid aldehyde derivative conjugated to insulin", "values": [
      {"measurement": "effect on glucose level in the blood", "setting": "[1]; 5 or 20 μg equivalent insulin", "value": "exerted more slowly, but has a considerably prolonged duration with time"},
      {"measurement": "effectiveness relative to the conjugated drug (insulin)", "setting": "[1]; diabetic rats, subcutaneous", "value": "doubling the effectiveness"},
      {"measurement": "time span to bring glucose to a lower level than the group treated with insulin alone", "setting": "[1]; diabetic rats, subcutaneous, 5 or 20 μg equivalent insulin", "value": "≤ 5", "unit": "h"},
      {"measurement": "duration for which the glucose lowering effect is maintained", "setting": "[1]; diabetic rats, subcutaneous, duration of the experiment", "value": 24, "unit": "h"}
    ]},
    {"molecule": "Calcitonin", "values": [
      {"measurement": "absorption half-life", "setting": "[2]", "value": "10 to 15", "unit": "min"},
      {"measurement": "elimination half-life", "setting": "[2]", "value": "50 to 80", "unit": "min"}
    ]},
    {"molecule": "RNAsi A: free enzyme RNAse A (protein, UniProt P61823 27-150, looked up) Ribonuclease pancreatic: KETAAAKFERQHMDSSTSAASSSNYCNQMMKSRNLTKDRCKPVNTFVHESLADVQAVCSQKNVACKNGQTNCYQSYSTMSITDCRETGSSKYPNCAYKTTQANKHIIVACEGNPYVPVHFDASV", "values": [
      {"measurement": "% Relative enzymatic activity", "setting": "[3]", "value": 100, "unit": "%"}
    ]},
    {"molecule": "HA-Ac-RNAsi A: hyaluronic acid aldehyde derivative conjugated to RNAse A at the N-terminal end (conjugate, UniProt P61823 27-150, looked up, hyaluronic acid aldehyde conjugate, hyaluronic acid aldehyde derivative conjugated to RNAse A at the N-terminal end) Ribonuclease pancreatic: KETAAAKFERQHMDSSTSAASSSNYCNQMMKSRNLTKDRCKPVNTFVHESLADVQAVCSQKNVACKNGQTNCYQSYSTMSITDCRETGSSKYPNCAYKTTQANKHIIVACEGNPYVPVHFDASV", "values": [
      {"measurement": "% Relative enzymatic activity", "setting": "[3]", "value": 95.23, "unit": "%"}
    ]}
  ]
}
